Results reported in US6335339B1, “Triazine antiviral compounds” (Scriptgen Pharmaceuticals, Inc., priority 1998, dated 2002).

system: HBV; assay: antiviral assay in 2.2.15 cells producing HBV (virion DNA dot blot); format: cell-based, Hepatitis B virus; details: Hepatitis B virus, 216 h, read-out: Antiviral EC50 (μM)
Text: Several cell lines and cell culture assays have been developed to identify potential therapeutics effective against chronic HBV infection. One of these cell lines, 2.2.15, has been used in a standardized assay that has repeatedly proven to be an accurate model of chronic cellular HBV replication and a predictive model of antiviral response for chronic hepadnaviral infection in vivo. 2.2.15 cells contain copies of the complete HBV genome integrated into the cell's genome, and 2.2.15 cells are not susceptible to infection by HBV. (Sells, M. A. et al., J. Virol. 62 (8): 2836-2844 (1988)). These cells express HBV genes producing complete HBV particles capable of infecting chimpanzees (Acs, G. et al., Proc. Natl. Acad. Sci. USA 84 (13): 4641-4644 (1987)). Briefly, 2.2.15 cells are cultured and pretreated with a test compound for about 9 days, at which point the media are harvested and subjected to dot-blot hybridization to detect HBV virion DNA.
The antiviral activity of the compounds of the present invention is measured by the methods described in Korba and Gering, Antiviral Res. 19: 55-70 (1992).
This assay format is well suited to the screening of test compounds for potential antiviral activity. The assay provides a threshold assessment of antiviral activity by measuring (i) the levels of HBV virion release from the cells and (ii) cytotoxicity. Two rows of cells were used for each compound, and 4 rows for the assay controls (two for untreated, and two for positive antiviral control, e.g., 3TC). After incubating in the presence of test compound for 9 days, the media were harvested, transferred to 96-well U-bottom plates, and centrifuged. The supernatants were transferred to tubes for dot blot hybridization analysis of HBV virion DNA. The medium was aspirated off of the toxicity plates and discarded. Toxicity plates were then incubated with neutral red dye (MTT can also be used if preferred), washed with DPBS, developed with an acetic acid-ethanol solution, and assayed in a plate reader.
1. 2.2.15 cells were seeded into 96-well, flat bottom tissue culture plates as described above. Duplicate plates were used for the antiviral treatments for each test compound (up to 8 compounds per pair of plates); after three to four days, cells were confluent and medium was yellow in color; the medium was removed and replaced with 100 μl RP2 24 hours before the beginning of drug treatment.
i) For each compound, a total of 4 concentrations were examined; this required 9 sets of 4 sterile, 1.1 ml minitubes (36 tubes per compound). Into the first tube of each set, sufficient compound was aliquoted to make up 700 μl (for 10-fold dilution series) or 980 μl (for 3.3-fold dilution series) of the highest test concentration; the other tubes were left empty.
i) For a 10-fold dilution series: to the first (compound containing) tube was added 700 μl (175 μl×4). 630 μl (210 μl×3) RP2 culture medium was added to the remaining 3 tubes. The first tube was mixed by pipeting up and down with a pipetman (a multichannel pipetman permits the simultaneous processing of multiple compounds). 70 μl of test compound-containing medium were serially transferred from the first tube to the other 3 tubes, taking care to thoroughly mix each tube before transferring medium;
b) 100 μl of each dilution of every compound was added to each of 6 wells (3 wells per plate) using the configuration listed below as an example. The lowest concentration was added first, and the same tips were used to add the higher concentrations. The untreated cells received 100 μl RP2 per well (untreated cells have to be carried on only one pair of the antiviral assay plates).
c) Treatments were repeated daily for 9 days. For the last day of treatment, and additional 200 μl RP2 were added to each well of the antiviral assay plates after the wells are treated with the test compounds (a total of 300 μl medium per well).
6. […]

| Structure (SMILES) | EC50 [µM] |
| --- | --- |
| CCN(CC)c1nc(NCc2ccccc2)nc(N/N=C/c2ccccc2O)n1 [Compound 155, 2-hydroxybenzaldehyde N-[4-(benzylamino)-6-(diethylamino)-1,3,5-triazin-2-yl]hydrazone] | 0.063 |

same assay, conditions: Hepatitis B virus, 216 h; extra-cellular virus reduced by 50%; 2.2.15 cells, 9 days treatment; read-out: Antiviral EC50

| Structure (SMILES) | EC50 [µM] |
| --- | --- |
| CCN(CC)c1nc(NCc2ccccc2)nc(N/N=C/c2ccccc2O)n1 [Compound 155, 2-hydroxybenzaldehyde N-[4-(benzylamino)-6-(diethylamino)-1,3,5-triazin-2-yl]hydrazone] | 0.001 |

same assay, conditions: drug alone, Example 3; read-out: 90% viral reduction (EC90)

| Structure (SMILES) | EC90 [µM] |
| --- | --- |
| CCCCN(CCCC)c1nc(NN=Cc2ccc([N+](=O)[O-])cc2)nc(Nc2ccc([N+](=O)[O-])cc2)n1 [Compound 5] | 1.3 |

same assay, conditions: extra-cellular virus reduced by 50%; 2.2.15 cells, 9 days treatment; read-out: Antiviral EC50

| Structure (SMILES) | EC50 [µM] |
| --- | --- |
| CCCCN(CCCC)c1nc(NN=Cc2ccc([N+](=O)[O-])cc2)nc(Nc2ccc([N+](=O)[O-])cc2)n1 [Compound 5] | 0.411 |
| Cc1ccc(Nc2nc(NN=Cc3ccccc3)nc(Nc3ccccc3)n2)c(C)c1 [Compound 7] | 33 |
| CCCCN(CCCC)c1nc(N/N=C/c2cc(I)cc(I)c2O)nc(Nc2ccc([N+](=O)[O-])cc2)n1 [Compound 8] | > 100 |
| Cc1ccc(Nc2nc(NN=Cc3ccc(O)cc3O)nc(Nc3ccc([N+](=O)[O-])cc3)n2)cc1C [Compound 9] | 0.474 |
| Cc1ccccc1Nc1nc(NN=Cc2ccc(I)cc2)nc(Nc2ccc([N+](=O)[O-])cc2)n1 [Compound 10] | > 100 |
| CCCCN(CCCC)c1nc(NN=Cc2ccc3c(c2)OCO3)nc(Nc2ccc([N+](=O)[O-])cc2)n1 [Compound 11] | 3.9 |
| Cc1ccc(Nc2nc(NN=Cc3ccccc3O)nc(Nc3ccc([N+](=O)[O-])cc3)n2)cc1C [Compound 12] | 0.759 |
| CCN(CC)c1nc(NN=Cc2ccc([N+](=O)[O-])cc2)nc(Nc2ccccc2)n1 [Compound 13] | 8.4 |
| COc1c(Br)cc(Br)cc1C=NNc1nc(Nc2ccccc2)nc(N2CCCCC2)n1 [Compound 14] | > 100 |
| Cc1ccc(C=NNc2nc(Nc3ccc([N+](=O)[O-])cc3)nc(Nc3ccccc3C)n2)cc1 [Compound 15] | 0.5 |
| CCCCN(CCCC)c1nc(NN=Cc2ccc(Cl)cc2)nc(Nc2ccc([N+](=O)[O-])cc2)n1 [Compound 16] | 15 |
| CC(C=NNc1nc(Nc2ccc([N+](=O)[O-])cc2)nc(Nc2ccc(C)c(C)c2)n1)=Cc1ccccc1 [Compound 19] | > 100 |
| COc1ccc(Nc2nc(NN=Cc3ccc(OC)cc3OC)nc(Nc3ccccc3)n2)cc1 [Compound 20] | 4.1 |
| FC(F)(F)c1cccc(Nc2nc(Nc3ccccc3)nc(N3CCOCC3)n2)c1 [Compound 21] | 5.6 |
| COc1ccc(Nc2nc(NN=Cc3ccc(Cl)cc3)nc(Nc3ccccc3)n2)cc1 [Compound 22] | > 100 |
| CCCCN(CCCC)c1nc(NN=Cc2ccc(OCC)c(O)c2)nc(Nc2ccc([N+](=O)[O-])cc2)n1 [Compound 23] | 40 |
| O=[N+]([O-])c1ccc(Nc2nc(NCc3ccccc3)nc(NN=Cc3ccccc3)n2)cc1 [Compound 24] | 18 |
| Cc1ccc(Nc2nc(NN=Cc3ccccc3)nc(Nc3ccccc3)n2)cc1 [Compound 25] | 1 |
| CCN(CC)CCNc1ccc2c3c(cccc13)C(=O)N(Nc1nc(NCc3ccccc3)nc(N(CC)CC)n1)C2=O [Compound 27] | > 100 |

| Structure (SMILES) | EC50 [µM] |
| --- | --- |
| COc1ccc(Br)cc1/C=N/Nc1nc(Nc2cccc([N+](=O)[O-])c2)nc(N2CCOCC2)n1 [Compound 28] | > 100 |
| Cc1ccccc1Nc1nc(NN=Cc2ccc3c(c2)OCO3)nc(Nc2ccc([N+](=O)[O-])cc2)n1 [Compound 29] | 1.1 |
| Cc1ccc(Nc2nc(NN=Cc3cccc(I)c3)nc(Nc3ccccc3)n2)cc1 [Compound 30] | 54 |
| Oc1ccc(I)cc1C=NNc1nc(NCc2ccccc2)nc(Nc2ccccc2)n1 [Compound 33] | > 100 |
| Oc1c(Br)cc(Cl)cc1/C=N/Nc1nc(Nc2cccc(C(F)(F)F)c2)nc(N2CCOCC2)n1 [Compound 34] | 66 |
| CCCCN(CCCC)c1nc(NN=Cc2cccc(Cl)c2)nc(Nc2ccc([N+](=O)[O-])cc2)n1 [Compound 35] | 2.3 |
| Cc1ccc(Nc2nc(NN=Cc3ccc(I)cc3)nc(Nc3ccccc3)n2)c(C)c1 [Compound 113] | > 100 |
| O=[N+]([O-])c1ccc(Nc2nc(NN=Cc3ccc(Br)cc3)nc(N3CCCCCC3)n2)cc1 [Compound 117] | 4.2 |
| FC(F)(F)c1cccc(Nc2nc(NN=Cc3ccc(Cl)cc3)nc(N3CCOCC3)n2)c1 [Compound 120] | > 100 |
| C(=Cc1ccccc1)C=NNc1nc(Nc2ccccc2)nc(Nc2ccccc2)n1 [Compound 125] | 3.9 |
| COc1ccc(Nc2nc(NN=Cc3ccc(O)cc3O)nc(Nc3ccccc3)n2)cc1 [Compound 158] | 42 |
| Cc1ccc(Nc2nc(NN=Cc3cc(I)ccc3O)nc(Nc3ccccc3)n2)c(C)c1 [Compound 159] | 0.498 |
| Oc1ccc(Cl)cc1C=NNc1nc(Nc2ccc3ccccc3c2)nc(N2CCOCC2)n1 [Compound 160] | 0.42 |
| COc1c(C=NNc2nc(NCc3ccccc3)nc(Nc3ccccc3)n2)cccc1[N+](=O)[O-] [Compound 162] | 0.923 |
| Brc1cccc(C=NNc2nc(Nc3ccccc3)nc(N3CCOCC3)n2)c1 [Compound 163] | 0.958 |
| COc1ccc(Nc2nc(NN=Cc3ccc(O)cc3O)nc(N3CCOCC3)n2)cc1 [Compound 164] | 0.863 |
| COc1ccc(C=NNc2nc(NCc3ccccc3)nc(Nc3ccccc3)n2)cc1 [Compound 165] | 3.8 |
| Ic1cccc(C=NNc2nc(Nc3ccc4ccccc4c3)nc(N3CCOCC3)n2)c1 [Compound 166] | 1.4 |
| Oc1ccc2ccccc2c1C=NNc1nc(Nc2cccc3ccccc23)nc(N2CCOCC2)n1 [Compound 167] | 1.7 |

| Structure (SMILES) | EC50 [µM] |
| --- | --- |
| COc1c(C=NNc2nc(Nc3ccccc3)nc(Nc3ccccc3)n2)ccc(Br)c1O [Compound 168] | 0.7 |
| Oc1ccccc1C=NNc1nc(Nc2ccccc2)nc(N2CCCCC2)n1 [Compound 169] | 2.5 |
| COc1cccc(C=NNc2nc(Nc3ccccc3)nc(N3CCCC3)n2)c1O [Compound 170] | 4 |
| CCN(CC)c1nc(NN=Cc2c(O)ccc3ccccc23)nc(Nc2ccccc2)n1 [Compound 171] | 5 |
| Cc1cccc(C(=O)Oc2ccc(C=NNc3nc(N4CCCCC4)nc(N4CCCCC4)n3)cc2)c1 [Compound 181] | 6 |
| CC(=NNc1nc(NCc2ccccc2)nc(Nc2ccccc2)n1)c1ccc([N+](=O)[O-])cc1 [Compound 182] | 54 |
| CC(=NNc1nc(Nc2ccccc2)nc(N2CCCC2)n1)c1ccc([N+](=O)[O-])cc1 [Compound 183] | 52 |
| Cc1ccc(Nc2nc(NCc3ccccc3)nc(NN=Cc3ccc(F)cc3F)n2)cc1C [Compound 191] | > 100 |
| CN(C)c1nc(NCc2ccccc2)nc(NCc2cccs2)n1 [Compound 192] | > 100 |
| COc1c(C=NNc2nc(N3CCCC3)nc(N3CCOCC3)n2)cccc1[N+](=O)[O-] [Compound 193] | > 100 |
| Cc1ccc(Nc2nc(NCc3ccccc3)nc(Nc3ccc([N+](=O)[O-])cc3)n2)cc1C [Compound 194] | > 100 |
| COc1ccccc1C=NNc1nc(NCc2ccccc2)nc(Nc2ccccc2)n1 [Compound 195] | > 100 |
| Cc1ccc(Nc2nc(NN=Cc3ccc(Cl)cc3)nc(N3CCOCC3)n2)cc1Cl [Compound 196] | > 100 |
| COc1ccc(Nc2nc(NN=Cc3cc(Br)cc(Br)c3O)nc(N3CCOCC3)n2)cc1 [Compound 200] | > 100 |
| Fc1cccc(C=NNc2nc(Nc3ccccc3)nc(N3CCCC3)n2)c1 [Compound 201] | > 100 |
| CCN(CC)c1nc(Nc2cccc(Br)c2)nc(Nc2cc(C)ccc2C)n1 [Compound 202] | > 100 |
| O=C(CSc1nc(SCC(=O)Nc2ccccc2C(F)(F)F)nc(SCC(=O)Nc2ccccc2C(F)(F)F)n1)Nc1ccccc1C(F)(F)F [Compound 212] | > 100 |
| C(=Cc1ccccc1)C=NNc1nc(Nc2ccccc2)nc(N2CCCC2)n1 [Compound 213] | > 100 |
| CCN(CC)c1nc(NN=Cc2ccc(Cl)c([N+](=O)[O-])c2)nc(Nc2cc(C)ccc2C)n1 [Compound 214] | > 100 |
